Assay results published in the supplement of paper PMC10307832.

Legend:
Experiment in all cases: relative viability (nuclei count vs DMSO), 5 days (fraction); higher = more cells survive
Kobe2602 + Alpelisib = compound: C1=CC(=CC=C1NC(=S)NNC2=C(C=C(C=C2[N+](=O)[O-])C(F)(F)F)[N+](=O)[O-])F [Kobe2602] + Cc1nc(NC(=O)N2CCC[C@H]2C(N)=O)sc1-c1ccnc(C(C)(C)C(F)(F)F)c1 [Alpelisib] (partner 2 µM)
Method in brief: (§1)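 Dosing by pin tool came one day after lung cancer cell lines were seeded in 1536-well plates, using either one drug or a fixed anchor-drug dose plus five library-drug doses (not always all listed) in √10 steps. After 5 days, nuclei were counted on 4× images. Relative viability is treated-well nuclei count divided by vehicle-well nuclei count, and values are medians of duplicate plates.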

[1] = compound: COc1cc2nccc(Oc3ccc(NC(=O)C4(C(=O)Nc5ccc(F)cc5)CC4)cc3)c2cc1OC [Cabozantinib] + Cc1cc(Nc2cc(N3CCN(C)CC3)nc(Sc3ccc(NC(=O)C4CC4)cc3)n2)n[nH]1 [Tozasertib] (partner 0.1 µM)
Method in brief: as §1

Zosuquidar + Navitoclax = compound: O[C@@H](COc1cccc2ncccc12)CN1CCN([C@@H]2c3ccccc3[C@@H]3[C@H](c4ccccc42)C3(F)F)CC1 [Zosuquidar] + CC1(C)CCC(c2ccc(Cl)cc2)=C(CN2CCN(c3ccc(C(=O)NS(=O)(=O)c4ccc(N[C@H](CCN5CCOCC5)CSc5ccccc5)c(S(=O)(=O)C(F)(F)F)c4)cc3)CC2)C1 [Navitoclax] (partner 0.5 µM)
Method in brief: as §1

Zosuquidar + AZD7762 = compound: O[C@@H](COc1cccc2ncccc12)CN1CCN([C@@H]2c3ccccc3[C@@H]3[C@H](c4ccccc42)C3(F)F)CC1 [Zosuquidar] + NC(=O)Nc1cc(-c2cccc(F)c2)sc1C(=O)N[C@H]1CCCNC1 [AZD7762] (partner 0.2 µM)
Method in brief: as §1

| Cell Line | relative viability (Kobe2602 + Alpelisib; first compound 0.2 µM) | relative viability (Kobe2602 + Alpelisib; first compound 0.6325 µM) | relative viability (Kobe2602 + Alpelisib; first compound 2 µM) | relative viability (Kobe2602 + Alpelisib; first compound 6.325 µM) | relative viability (Kobe2602 + Alpelisib; first compound 20 µM) | relative viability ([1]; first compound 0.02 µM) | relative viability ([1]; first compound 0.06325 µM) | relative viability ([1]; first compound 0.6325 µM) | relative viability ([1]; first compound 2 µM) | relative viability (Zosuquidar + Navitoclax; first compound 0.01 µM) | relative viability (Zosuquidar + Navitoclax; first compound 0.03162 µM) | relative viability (Zosuquidar + Navitoclax; first compound 0.1 µM) | relative viability (Zosuquidar + Navitoclax; first compound 0.3162 µM) | relative viability (Zosuquidar + Navitoclax; first compound 1 µM) | relative viability (Zosuquidar + AZD7762; first compound 0.01 µM) | relative viability (Zosuquidar + AZD7762; first compound 0.03162 µM) | relative viability (Zosuquidar + AZD7762; first compound 0.1 µM) | relative viability (Zosuquidar + AZD7762; first compound 0.3162 µM) | relative viability (Zosuquidar + AZD7762; first compound 1 µM) | relative viability ([1]; first compound 0.2 µM) |
| --- | --- | --- | --- | --- | --- | --- | --- | --- | --- | --- | --- | --- | --- | --- | --- | --- | --- | --- | --- | --- |
| PC-3 [JPC-3] | 1.05 | 1.04 | 0.971 | 1.03 | 1.02 | 0.928 | 1.04 | 0.938 | 0.861 | 0.783 | 0.775 | 0.755 | 0.792 | 0.755 | 0.78 | 0.9 | 0.648 | 0.836 | 0.524 | – |
| HARA | 0.934 | 0.943 | 0.797 | 0.752 | 0.791 | 0.132 | 0.113 | 0.129 | 0.107 | 1.1 | 1.15 | 1.1 | 1.1 | 1.14 | 0.429 | 0.343 | 0.304 | 0.344 | 0.322 | 0.116 |
| NCI-H2347 | 0.972 | 1.01 | 0.969 | 1.08 | 1.09 | 0.572 | 0.526 | – | 0.392 | 0.891 | 0.686 | 0.583 | 0.931 | 0.944 | 0.701 | 0.811 | 0.564 | 0.808 | 0.764 | 0.575 |
| LOU-NH91 | 0.767 | 0.752 | 0.701 | 0.722 | 0.778 | 0.677 | 0.729 | 0.724 | 0.75 | 0.624 | 0.695 | 0.571 | 0.739 | 0.68 | 0.761 | 0.807 | 0.637 | 0.793 | 0.74 | – |
| LC-2-ad | 0.846 | 0.866 | 0.916 | 0.883 | 1.01 | – | 0.454 | 0.456 | 0.392 | 0.452 | 0.607 | 0.407 | 0.534 | 0.406 | 0.78 | 0.855 | 0.883 | 0.842 | 0.787 | 0.46 |
| LCLC-97TM1 | 0.26 | 0.26 | 0.228 | 0.202 | 0.262 | 0.288 | 0.27 | 0.217 | 0.282 | 0.448 | 0.396 | – | 0.496 | 0.412 | 0.214 | 0.345 | – | 0.25 | 0.2 | 0.252 |
| EKVX | 0.886 | 0.852 | 0.826 | 0.913 | 0.925 | 0.422 | 0.481 | 0.394 | 0.314 | 0.93 | 0.938 | 0.842 | 1.03 | 0.899 | 0.747 | 0.77 | – | 0.752 | 0.659 | 0.364 |
| NCI-H441 | 0.725 | 0.864 | 0.682 | 0.704 | 0.727 | 0.646 | 0.72 | 0.509 | 0.649 | 0.748 | 0.496 | 0.615 | – | 0.59 | 0.991 | 1.33 | 1.09 | 1.23 | 1.19 | 0.673 |
| HCC-827 | 0.951 | 0.875 | 0.951 | 0.936 | 1.07 | 0.456 | 0.481 | 0.436 | 0.414 | 1.04 | 0.991 | 0.991 | 1.02 | 1.03 | 0.171 | 0.212 | 0.148 | 0.216 | 0.192 | – |
| NCI-H838 | 0.909 | 1.01 | 0.915 | 1 | 0.976 | 0.314 | 0.296 | 0.259 | 0.219 | 1.25 | 1.22 | 1.16 | 1.26 | 1.17 | 0.939 | 0.997 | 0.898 | 0.948 | 0.904 | 0.288 |
| CAL-12T | 0.92 | 1.39 | 0.67 | 0.981 | 1.19 | 0.366 | 0.446 | 0.261 | 0.247 | 1.38 | 1.35 | 1.17 | 1.45 | 1.2 | 0.586 | 0.626 | 0.469 | 0.632 | 0.738 | 0.369 |
| NCI-H2342 | – | – | – | – | – | 0.656 | 0.516 | 0.478 | 0.401 | – | – | – | – | – | 0.63 | 0.527 | 0.44 | 0.552 | 0.47 | 0.553 |
| SW 900 | – | – | – | – | – | 0.551 | 0.481 | 0.464 | 0.299 | – | – | – | – | – | 0.597 | 0.782 | – | 0.668 | 0.636 | 0.814 |
| IA-LM | – | 0.778 | 0.602 | 0.683 | 0.751 | – | – | – | – | 0.803 | 0.83 | 1.02 | 0.848 | 0.753 | – | – | – | – | – | – |
| EPLC-272H | 0.883 | 1.08 | 0.908 | 0.885 | 0.925 | 0.357 | 0.338 | 0.295 | 0.352 | 1.08 | 1.28 | 1.1 | 1.07 | 0.984 | 0.233 | 0.154 | 0.29 | 0.32 | 0.222 | 0.204 |
| A-427 | 1.11 | 1.12 | 1.06 | 1.05 | 1.1 | 0.316 | 0.201 | 0.213 | 0.185 | 1.01 | 0.714 | 0.873 | 1.02 | 0.974 | 0.759 | 0.798 | 0.693 | 0.764 | 0.705 | 0.209 |
| SW 1573 | 0.759 | 0.792 | 0.677 | 0.622 | 0.736 | 0.149 | 0.146 | 0.148 | 0.177 | 0.974 | 0.896 | 1.07 | 1.05 | 1.02 | – | – | – | – | – | 0.18 |
| NCI-H661 | 0.565 | 0.644 | 0.738 | 0.661 | 0.955 | 0.374 | 0.361 | 0.393 | 0.375 | – | – | – | – | – | – | – | – | – | – | 0.388 |
